In US11691949B2, “Quinoline sulfonamide compounds and their use as antibacterial agents” (OTAGO INNOVATION LIMITED, priority 2017, dated 2023):
Values after ≈ are worked out from the molar mass of the structure shown. Like-named read-outs stand apart in the source and are kept apart here.

Key:
Type in all cases: cell-based
S. aureus ATCC 6538 [1] = experiment: MBC by Miles-Misra drop-plate method, S. aureus; conditions: Staphylococcus aureus
Method: (§1) Antibacterial susceptibility testing was performed in triplicate (biological) by measuring minimum inhibitory concentrations (MICs) by broth microdilution in 96-well flat bottom microtiter plates (ThermoFisher Scientific, New Zealand). S. uberis ATCC 19436, S. aureus ATCC 6538, or E. coli ATCC 10596 cells grown overnight were diluted to an OD600 of approximately 0.025, so that the final concentration of cells in the MIC assay was approximately 5×10^5 cfu/mL in media as follows: S. uberis; Todd Hewitt Broth (THB), S. aureus; Tryptic Soy Broth (TSB) and Cation Adjusted Muller Hinton Broth (CAMHB), and E. coli; Lysogeny Borth (LB) and CAMHB, before being dispensed into microtiter wells. As required additional sterile Zinc Sulphate (Heptahydrate) was supplemented into the media, so the final concentration was 50 μM. Test compounds were added to starting wells and two-fold serial dilutions were undertaken to generate a range of inhibitor concentrations at a final volume of 200 μl. Media and test compound-free (untreated) controls were included in each microtiter plate in triplicate. After 24 h incubation at 37° C. and 200 rpm, the OD600 of wells were read using a Varioskan Flash plate reader (ThermoFisher Scientific, New Zealand). The MIC was reported as the lowest concentration of the test compound for which no growth occurred, as determined by OD600 readings. The minimum bactericidal concentration (MBC) was determined using the Miles-Misra drop-plate method to measure the viability of cells in response to test compound challenge.

S. uberis ATCC 19436 [2] = experiment: MBC by Miles-Misra drop-plate method, S. uberis; conditions: Streptococcus uberis
Method: as §1

E. coli ATCC 10596 = experiment: MIC by broth microdilution, E. coli; conditions: Escherichia coli
Outline: (§2)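 Two-fold serial dilutions were tested in broth at ~5×10^5 cfu/mL: S. aureus in TSB or CAMHB, E. coli in LB or CAMHB, with 50 μM zinc sulphate added as required. After 24 h at 37° C, 200 rpm, MIC was the lowest concentration showing no growth by OD600.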

S. uberis ATCC 19436 [3] = experiment: MIC by broth microdilution, S. uberis; conditions: Streptococcus uberis
Outline: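 This broth microdilution assay used S. uberis ATCC 19436 in Todd Hewitt Broth, with zinc sulphate heptahydrate added where required to a final 50 μM. Inhibitor concentration ranges came from two-fold serial dilutions in 96-well flat bottom plates at 200 μl. Approximately 5×10^5 cfu/mL cells were incubated for 24 h at 37° C. and 200 rpm. Wells were then read at OD600 on a Varioskan Flash reader.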

S. aureus ATCC 6538 [4] = experiment: MIC by broth microdilution, S. aureus; conditions: Staphylococcus aureus
Outline: as §2

E. coli ATCC 10536 = experiment: MBC by Miles-Misra drop-plate method, E. coli; conditions: Escherichia coli
Method: as §1

[5] = ATCC6538, No Zinc, read-out: S. aureus ATCC 6538 MBC
[6] = ATCC6538, Zinc (50 μM), read-out: S. aureus ATCC 6538 MBC
[7] = ATCC19436, No Zinc, read-out: S. uberis ATCC 19436 MBC
[8] = ATCC19436, Zinc (50 μM), read-out: S. uberis ATCC 19436 MBC
[9] = ATCC 10536 / ATCC 10596, No Zinc, read-out: E. coli ATCC 10536 MIC
[10] = ATCC 10536 / ATCC 10596, Zinc (50 μM), read-out: E. coli ATCC 10536 MIC
[11] = ATCC19436, No Zinc, read-out: S. uberis ATCC 19436 MIC
[12] = ATCC19436, Zinc (50 μM), read-out: S. uberis ATCC 19436 MIC
[13] = ATCC6538, No Zinc, read-out: S. aureus ATCC 6538 MIC
[14] = ATCC6538, Zinc (50 μM), read-out: S. aureus ATCC 6538 MIC
[15] = ATCC10536, No Zinc, read-out: E. coli ATCC 10536 MBC
[16] = ATCC10536, Zinc (50 μM), read-out: E. coli ATCC 10536 MBC
[17] = ATCC6538, read-out: S. aureus ATCC 6538 MBC, No Zinc
[18] = ATCC6538, read-out: S. aureus ATCC 6538 MBC, Zinc (50 μM)
[19] = ATCC19436, read-out: S. uberis ATCC 19436 MBC, No Zinc
[20] = ATCC19436, read-out: S. uberis ATCC 19436 MBC, Zinc (50 μM)
[21] = ATCC 10536 / ATCC 10596, read-out: E. coli ATCC 10536 MIC, No Zinc
[22] = ATCC 10536 / ATCC 10596, read-out: E. coli ATCC 10536 MIC, Zinc (50 μM)
[23] = ATCC19436, read-out: S. uberis ATCC 19436 MIC, No Zinc
[24] = ATCC19436, read-out: S. uberis ATCC 19436 MIC, Zinc (50 μM)
[25] = ATCC6538, read-out: S. aureus ATCC 6538 MIC, No Zinc
[26] = ATCC6538, read-out: S. aureus ATCC 6538 MIC, Zinc (50 μM)
[27] = ATCC10536, read-out: E. coli ATCC 10536 MBC, No Zinc
[28] = ATCC10536, read-out: E. coli ATCC 10536 MBC, Zinc (50 μM)

O=S(=O)(Nc1cccc2ccc(CNC(CO)(CO)CO)nc12)c1ccc(C(F)(F)F)cc1 [ZDR102, N-(2-(((1,3-Dihydroxy-2-(hydroxymethyl)propan-2-yl)amino)methyl)quinolin-8-yl)-4-(trifluoromethyl)benzenesulfonamide]
MBC (S. aureus ATCC 6538 [1]; [5]): 128 µg/mL (≈ 264 µM)
MBC (S. aureus ATCC 6538 [1]; [6]): 32 µg/mL (≈ 65.9 µM)
MBC (S. uberis ATCC 19436 [2]; [7]): 32 µg/mL (≈ 65.9 µM)
MBC (S. uberis ATCC 19436 [2]; [8]): 16 µg/mL (≈ 33 µM)
MIC (E. coli ATCC 10596; [9]): 256 µg/mL (≈ 527 µM)
MIC (E. coli ATCC 10596; [10]): 64 µg/mL (≈ 132 µM)
MIC (S. uberis ATCC 19436 [3]; [11]): 32 µg/mL (≈ 65.9 µM)
MIC (S. uberis ATCC 19436 [3]; [12]): 16 µg/mL (≈ 33 µM)
MIC (S. aureus ATCC 6538 [4]; [13]): 32 µg/mL (≈ 65.9 µM)
MIC (S. aureus ATCC 6538 [4]; [14]): 16 µg/mL (≈ 33 µM)
MBC (E. coli ATCC 10536; [15]): 256 µg/mL (≈ 527 µM)
MBC (E. coli ATCC 10536; [16]): > 256 µg/mL

O=S(=O)(Nc1cccc2ccc(CNCCN3CCCCC3)nc12)c1ccc(C(F)(F)F)cc1 [ZDR111, N-(2-(((2-(Piperidin-1-yl)ethyl)amino)methyl)quinolin-8-yl)-4-(trifluoromethyl)benzenesulfonamide]
MBC (S. aureus ATCC 6538 [1]; [5]): 16 µg/mL (≈ 32.5 µM)
MBC (S. aureus ATCC 6538 [1]; [6]): 16 µg/mL (≈ 32.5 µM)
MBC (S. uberis ATCC 19436 [2]; [7]): 8 µg/mL (≈ 16.2 µM)
MBC (S. uberis ATCC 19436 [2]; [8]): 1 µg/mL (≈ 2.03 µM)
MIC (E. coli ATCC 10596; [9]): 64 µg/mL (≈ 130 µM)
MIC (E. coli ATCC 10596; [10]): > 256 µg/mL
MIC (S. uberis ATCC 19436 [3]; [11]): 8 µg/mL (≈ 16.2 µM)
MIC (S. uberis ATCC 19436 [3]; [12]): 0.5 µg/mL (≈ 1.02 µM)
MIC (S. aureus ATCC 6538 [4]; [13]): 16 µg/mL (≈ 32.5 µM)
MIC (S. aureus ATCC 6538 [4]; [14]): 16 µg/mL (≈ 32.5 µM)
MBC (E. coli ATCC 10536; [15]): > 256 µg/mL
MBC (E. coli ATCC 10536; [16]): > 256 µg/mL

O=S(=O)(Nc1cccc2ccc(CNCCN3CCOCC3)nc12)c1ccc(C(F)(F)F)cc1 [ZDR112, N-(2-(((2-Morpholinoethyl)amino)methyl)quinolin-8-yl)-4-(trifluoromethyl)benzenesulfonamide]
MBC (S. aureus ATCC 6538 [1]; [5]): > 256 µg/mL
MBC (S. aureus ATCC 6538 [1]; [6]): 256 µg/mL (≈ 518 µM)
MBC (S. uberis ATCC 19436 [2]; [7]): 64 µg/mL (≈ 129 µM)
MBC (S. uberis ATCC 19436 [2]; [8]): 2 µg/mL (≈ 4.04 µM)
MIC (E. coli ATCC 10596; [9]): > 256 µg/mL
MIC (E. coli ATCC 10596; [10]): > 256 µg/mL
MIC (S. uberis ATCC 19436 [3]; [11]): 64 µg/mL (≈ 129 µM)
MIC (S. uberis ATCC 19436 [3]; [12]): 1 µg/mL (≈ 2.02 µM)
MIC (S. aureus ATCC 6538 [4]; [13]): 16 µg/mL (≈ 32.4 µM)
MIC (S. aureus ATCC 6538 [4]; [14]): 32 µg/mL (≈ 64.7 µM)
MBC (E. coli ATCC 10536; [15]): 128 µg/mL (≈ 259 µM)
MBC (E. coli ATCC 10536; [16]): > 256 µg/mL

CN1CCN(CCNCc2ccc3cccc(NS(=O)(=O)c4ccc(C(F)(F)F)cc4)c3n2)CC1 [ZDR114, N-(2-(((2-(4-Methylpiperazin-1-yl)ethyl)amino)methyl)quinolin-8-yl)-4-(trifluoromethyl)benzenesulfonamide di-trifluoroacetate]
MBC (S. aureus ATCC 6538 [1]; [17]): 128 µg/mL (≈ 252 µM)
MBC (S. aureus ATCC 6538 [1]; [18]): 64 µg/mL (≈ 126 µM)
MBC (S. uberis ATCC 19436 [2]; [19]): 32 µg/mL (≈ 63 µM)
MBC (S. uberis ATCC 19436 [2]; [20]): 4 µg/mL (≈ 7.88 µM)
MIC (E. coli ATCC 10596; [21]): 64 µg/mL (≈ 126 µM)
MIC (E. coli ATCC 10596; [22]): 64 µg/mL (≈ 126 µM)
MIC (S. uberis ATCC 19436 [3]; [23]): 32 µg/mL (≈ 63 µM)
MIC (S. uberis ATCC 19436 [3]; [24]): 4 µg/mL (≈ 7.88 µM)
MIC (S. aureus ATCC 6538 [4]; [25]): 64 µg/mL (≈ 126 µM)
MIC (S. aureus ATCC 6538 [4]; [26]): 64 µg/mL (≈ 126 µM)
MBC (E. coli ATCC 10536; [27]): > 256 µg/mL
MBC (E. coli ATCC 10536; [28]): 64 µg/mL (≈ 126 µM)

O=S(=O)(Nc1cccc2ccc(CNCCCN3CCCCC3)nc12)c1ccc(C(F)(F)F)cc1 [ZDR115, N-(2-(((3-(Piperidin-1-yl)propyl)amino)methyl)quinolin-8-yl)-4-(trifluoromethyl)benzenesulfonamide di-trifluoroacetate]
MBC (S. aureus ATCC 6538 [1]; [17]): 16 µg/mL (≈ 31.6 µM)
MBC (S. aureus ATCC 6538 [1]; [18]): 16 µg/mL (≈ 31.6 µM)
MBC (S. uberis ATCC 19436 [2]; [19]): 8 µg/mL (≈ 15.8 µM)
MBC (S. uberis ATCC 19436 [2]; [20]): 4 µg/mL (≈ 7.9 µM)
MIC (E. coli ATCC 10596; [21]): 16 µg/mL (≈ 31.6 µM)
MIC (E. coli ATCC 10596; [22]): 16 µg/mL (≈ 31.6 µM)
MIC (S. uberis ATCC 19436 [3]; [23]): 4 µg/mL (≈ 7.9 µM)
MIC (S. uberis ATCC 19436 [3]; [24]): 2 µg/mL (≈ 3.95 µM)
MIC (S. aureus ATCC 6538 [4]; [25]): 16 µg/mL (≈ 31.6 µM)
MIC (S. aureus ATCC 6538 [4]; [26]): 16 µg/mL (≈ 31.6 µM)
MBC (E. coli ATCC 10536; [27]): 16 µg/mL (≈ 31.6 µM)
MBC (E. coli ATCC 10536; [28]): 16 µg/mL (≈ 31.6 µM)
